Like-named read-outs stand apart in the source and are kept apart here.
Columns and labels:
[1] = molecular target: T1, CYP1A2 (Homo sapiens, UniProt P05177); test: Incubation with recombinant human CYPs, substrate disappearance; assay type: in vitro ADME; conditions: ripretinib 0.1 or 1 μM, data on file
T1 sequence (P05177 1-516): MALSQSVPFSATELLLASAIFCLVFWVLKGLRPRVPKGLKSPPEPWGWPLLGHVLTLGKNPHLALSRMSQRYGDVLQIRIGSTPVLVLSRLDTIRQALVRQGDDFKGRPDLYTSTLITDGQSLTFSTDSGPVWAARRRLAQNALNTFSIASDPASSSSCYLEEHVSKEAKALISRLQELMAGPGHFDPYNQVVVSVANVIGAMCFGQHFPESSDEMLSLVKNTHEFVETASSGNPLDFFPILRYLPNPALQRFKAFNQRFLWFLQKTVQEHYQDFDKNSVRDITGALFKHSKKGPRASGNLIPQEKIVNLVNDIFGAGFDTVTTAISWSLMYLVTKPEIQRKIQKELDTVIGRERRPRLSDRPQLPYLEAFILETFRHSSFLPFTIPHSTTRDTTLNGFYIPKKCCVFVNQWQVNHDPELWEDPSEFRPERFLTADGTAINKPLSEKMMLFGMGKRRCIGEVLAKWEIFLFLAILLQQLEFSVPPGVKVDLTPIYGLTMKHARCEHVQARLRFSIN
Protocol: In vitro studies with recombinant human cytochrome P450 isoforms (CYPs) and human liver microsomes (with chemical inhibitors) indicate that CYP3A4/5 plays a major role in the metabolism of ripretinib (data on file). When incubated with a panel of recombinant human CYPs, ripretinib (0.1 or 1 μM) disappeared in the presence of CYP3A4 (87.8%–100%), CYP2D6 (97.7%–100%), CYP2C8 (71.2% and 18.9%, respectively), and CYP2C19 (15.7% and 6.7%, respectively).

[2] = Pantoprazole (proton pump inhibitor) DDI study, plasma pharmacokinetics; assay type: in vivo, human; conditions: for AUC(0-t) / AUC(0-inf) / Cmax / half-life / Tmax: both sexes, human, plasma; for AUC(0-t) / AUC(0-inf) / Cmax / half-life: po; for AUC(0-t) / AUC(0-inf) / Cmax / half-life / Tmax / CL/F, arithmetic mean (SD) / CL/F, geometric mean (CV%): fasting; for Tmax: read-out: tmax, median (min, max); for Time postdose that mean plasma concentration remained above the LLOQ: LLOQ 2.00 ng/mL
Protocol: All studies were phase 1, fixed‐sequence, open‐label studies in healthy volunteers. One study consisted of two separate cohorts examining DDIs between ripretinib and itraconazole or pantoprazole, respectively; the rifampin study was conducted separately. Studies and cohorts were enrolled independently. Eligible participants were healthy male or female adults between 18 and 55 years of age with a body mass index (BMI) of ≥18.5 and ≤30 kg/m^2. Good health was confirmed by a physician and based on medical evaluation with no significant findings, including medical history, physical examination, laboratory tests, and 12‐lead electrocardiogram (ECG) at screening and day −1. Participants were required to abstain from alcohol, marijuana, grapefruit, Seville oranges, tangelo, star fruit, and grapefruit‐like products 14 days prior to and during the study. Participants with a positive breath test for Helicobacter pylori were excluded from the pantoprazole study.
Participants were confined to the study center on days 1 through 16. On day 1, participants received an oral dose of ripretinib 50 mg under fasting conditions (Figure 1C). On days 8 through 13, participants received pantoprazole 40 mg once daily. On day 14, participants received pantoprazole 40 mg once daily and ripretinib 50 mg simultaneously under fasting conditions.
Ripretinib and its active metabolite DP‐5439 plasma concentrations were measured using a validated high‐performance liquid chromatography (HPLC) with tandem mass spectrometry (LC‐MS/MS) assay with a lower limit of quantification (LLOQ) of 2.00 ng/mL for both analytes. In this method, the analytes (ripretinib and DP‐5439) and the internal standards (ISs; DCC‐2618‐d5 and DP‐5439‐d5) were released from human plasma samples by protein precipitation. The supernatants were chromatographed using reversed‐phase HPLC with a Betasil® C8 analytical column with deionized water (0.1% formic acid) and 40/60 acetonitrile/acetone (0.1% formic acid) as the mobile phase. Mass spectrometric detection was performed on a triple quadrupole tandem mass spectrometer API 5000 or API 5500 (Applied Biosystems/MDS Sciex, Toronto, Canada) equipped with a turbo ion spray source operated in the positive ionization mode. The source parameters were collision energy 40 eV, collision gas 6 psi, Nebulizer Gas 1, Turbo IonSpray Gas 2, and curtain gas 35 psi. Quantification was obtained by using multiple reaction monitoring mode of the transitions of mass to charge ratio [m/z] 510.3 →417 for DCC‐2618 (ripretinib), m/z 496.2 →403 for DP‐5439, m/z 515.3 →417 for DCC‐2618‐d5, and m/z 501.2 →403 for DP‐5439‐d5.
Plasma concentration–time data were analyzed using noncompartmental methods using Phoenix® WinNonlin® v7.0 (Certara USA Inc., Princeton, New Jersey). Derived PK parameters included area under the concentration–time curve from time 0 to time t (AUC0–t) and area under the concentration–time curve from 0 to infinity (AUC0–∞), maximum observed concentration (Cmax), time of maximum observed concentration (tmax), elimination half‐life (t1/2), apparent systemic clearance, and for DP‐5439, metabolite to parent ratio for AUC0–t, AUC0–∞, and Cmax.
The PK population included all participants who received ≥1 dose ripretinib and had ≥1 nonmissing PK concentration in plasma reported for ripretinib or DP‐5439. The PK evaluable set included all participants in the PK population who had ripretinib PK parameters on both ripretinib dosing days, bioanalytical results for ≥75% of planned analyses, no missed ripretinib doses and ≤2 missed perpetrator (itraconazole, pantoprazole, or rifampin) doses before the second dosing day of ripretinib, and no emesis within 8 hours of ripretinib administration. […]

[3] = ripretinib 50 mg single oral dose + pantoprazole 40 mg QD, healthy participants (N = 23)
[4] = ripretinib 50 mg single oral dose alone, healthy participants (pantoprazole study, N = 23)
[5] = ripretinib 50 mg with pantoprazole 40 mg QD relative to ripretinib alone
[6] = ripretinib 50 mg with pantoprazole 40 mg QD relative to ripretinib alone, listed as ripretinib

CCn1c(=O)c(-c2cc(NC(=O)Nc3ccccc3)c(F)cc2Br)cc2cnc(NC)cc21 [Ripretinib]
Substrate disappearance [1]: less than 7% | AUC(0-t) ([2]; 50 mg, ripretinib 50 mg single oral dose alone, healthy participants (pantoprazole study, N = 23), read-out: AUC0–t, arithmetic mean (SD)): 3870 ng·h/mL | AUC(0-t) ([2]; 50 mg, ripretinib 50 mg single oral dose alone, healthy participants (pantoprazole study, N = 23), read-out: AUC0–t, geometric mean (CV%)): 3610 ng·h/mL | AUC(0-inf) ([2]; 50 mg, ripretinib 50 mg single oral dose alone, healthy participants (pantoprazole study, N = 23), read-out: AUC0–∞, arithmetic mean (SD)): 3950 ng·h/mL | AUC(0-inf) ([2]; 50 mg, ripretinib 50 mg single oral dose alone, healthy participants (pantoprazole study, N = 23), read-out: AUC0–∞, geometric mean (CV%)): 3690 ng·h/mL | Cmax ([2]; 50 mg, ripretinib 50 mg single oral dose alone, healthy participants (pantoprazole study, N = 23), read-out: Cmax, arithmetic mean (SD)): 301 ng/mL | Cmax ([2]; 50 mg, ripretinib 50 mg single oral dose alone, healthy participants (pantoprazole study, N = 23), read-out: Cmax, geometric mean (CV%)): 289 ng/mL | half-life ([2]; 50 mg, ripretinib 50 mg single oral dose alone, healthy participants (pantoprazole study, N = 23), read-out: t1/2, arithmetic mean (SD) (converted)): 14 h | half-life ([2]; 50 mg, ripretinib 50 mg single oral dose alone, healthy participants (pantoprazole study, N = 23), read-out: t1/2, geometric mean (CV%) (converted)): 13 h | AUC(0-t) ([2]; ripretinib 50 mg single oral dose + pantoprazole 40 mg QD, healthy participants (N = 23), read-out: AUC0–t, arithmetic mean (SD)): 4220 ng·h/mL | AUC(0-t) ([2]; ripretinib 50 mg single oral dose + pantoprazole 40 mg QD, healthy participants (N = 23), read-out: AUC0–t, geometric mean (CV%)): 3940 ng·h/mL | AUC(0-inf) ([2]; ripretinib 50 mg single oral dose + pantoprazole 40 mg QD, healthy participants (N = 23), read-out: AUC0–∞, arithmetic mean (SD)): 4310 ng·h/mL | AUC(0-inf) ([2]; ripretinib 50 mg single oral dose + pantoprazole 40 mg QD, healthy participants (N = 23), read-out: AUC0–∞, geometric mean (CV%)): 4030 ng·h/mL | Cmax ([2]; ripretinib 50 mg single oral dose + pantoprazole 40 mg QD, healthy participants (N = 23), read-out: Cmax, arithmetic mean (SD)): 319 ng/mL | Cmax ([2]; ripretinib 50 mg single oral dose + pantoprazole 40 mg QD, healthy participants (N = 23), read-out: Cmax, geometric mean (CV%)): 298 ng/mL | half-life ([2]; ripretinib 50 mg single oral dose + pantoprazole 40 mg QD, healthy participants (N = 23), read-out: t1/2, arithmetic mean (SD) (converted)): 14 h | half-life ([2]; ripretinib 50 mg single oral dose + pantoprazole 40 mg QD, healthy participants (N = 23), read-out: t1/2, geometric mean (CV%) (converted)): 14 h | Tmax [2, 3]: 4 h | Tmax [2, 4]: 4 h | Effect of pantoprazole on exposure / pharmacokinetics ([2]; ripretinib 50 mg + pantoprazole 40 mg QD): no effect | Time postdose that mean plasma concentration remained above the LLOQ ([2]; ripretinib 50 mg alone (pantoprazole study)): < 96 h | CL/F, arithmetic mean (SD) [2, 3]: 13 (5) L/h | CL/F, geometric mean (CV%) [2, 3]: 12 (38) L/h | CL/F, arithmetic mean (SD) [2, 4]: 14 (5) L/h | CL/F, geometric mean (CV%) [2, 4]: 14 (38) L/h | Geometric LS mean ratio of AUC0–t [2, 5]: 109% | Geometric LS mean ratio of AUC0–∞ (90% CI) [2, 5]: 109 (98–122) % | Geometric LS mean ratio of Cmax (90% CI) [2, 5]: 103 (91–117) % | Geometric LS mean ratio of AUC0–∞ (90% CI) [2, 6]: 109% | Geometric LS mean ratio of Cmax (90% CI) [2, 6]: 103% | Time postdose that mean plasma concentration remained above the LLOQ ([2]; ripretinib 50 mg with pantoprazole): < 96 h

From PMC9790248, “Effects of CYP3A Inhibition, CYP3A Induction, and Gastric Acid Reduction on the Pharmacokinetics of Ripretinib, a Switch Control KIT Tyrosine Kinase Inhibitor” (Clinical Pharmacology in Drug Development, 2022)
